In patent US5629288A, “Lipopeptide derivatives, a process for their preparation and their use” (Hoechst Aktiengesellschaft, priority 1994, dated 1997):

Tested on: venous blood from rhesus monkeys
Test: Hemolytic activity in vitro (standard hemolysis test)
Format: cell-based
Details: for Hemolysis (%): fresh heparinized rhesus monkey blood, 37° C., 3 hours, absorption at 540 nm, % of maximum inducible hemolysis (distilled water = 100%), dilutions 1600-3.125 mg/l, concentration behind the value not stated; for hemolysis in the standard hemolysis test (in words): rhesus monkey blood
Protocol: 2) Freshly removed venous blood from rhesus monkeys is used to measure the hemolytic activity. The blood is collected in heparinized tubes and 200 μl aliquots are distributed over 12 polyethylene tubes. 200 μl of distilled water are added to one aliquot, which serves as 100% standard, and another is mixed with 200 μl of physiological saline (0.9% NaCl) (0% standard). 200 μl portions of substance dilutions in physiological saline containing 1600, 800, 400, 200, 100, 50, 25, 12.5, 6.25 and 3.125 mg/l are distributed over the other tubes. All the tubes are cautiously swirled and incubated at 37° C. for 3 hours. Subsequently 100% standard is made up with 5 ml of distilled water, and the others are each made up with 5 ml of physiological saline and centrifuged at 700 g for 5 minutes.
The hemolysis is determined by measuring the absorption of the supernatant in a spectrophotometer at a wavelength of 540 nm. The absorption of the standard with complete hemolysis (distilled water) is set equal to 100%. The absorptions of the test product dilutions and of the 0% standard are measured and reported as a percentage of the maximum inducible hemolysis.

| Structure (SMILES) | Hemolysis (%) | hemolysis in the standard hemolysis test (in words) |
| --- | --- | --- |
| CCCCCCCCCCCCC(=O)NC(CC(=O)O)C(=O)NC1C(=O)N2CCCCC2C(=O)NC(C(C)C(=O)O)C(=O)NC(CC(=O)O)C(=O)NCC(=O)NC(CC(=O)O)C(=O)NCC(=O)NC(C(C)N)C(=O)NC(C(C)C)C(=O)N2CCCC2C(=O)NC1C (centres unmarked) [Example 1, Tridecanoyl Derivative of A 1437 Cyclic Peptide] | 19.6 | – |
| CCCCCCCCCCC(=O)NC(CC(=O)O)C(=O)NC1C(=O)N2CCCCC2C(=O)NC(C(C)C(=O)O)C(=O)NC(CC(=O)O)C(=O)NCC(=O)NC(CC(=O)O)C(=O)NCC(=O)NC(C(C)N)C(=O)NC(C(C)C)C(=O)N2CCCC2C(=O)NC1C (centres unmarked) [Example 6] | 16.5 | – |
| CCCCCCCCCCCC(=O)NC(CC(=O)O)C(=O)NC1C(=O)N2CCCCC2C(=O)NC(C(C)C(=O)O)C(=O)NC(CC(=O)O)C(=O)NCC(=O)NC(CC(=O)O)C(=O)NCC(=O)NC(C(C)N)C(=O)NC(C(C)C)C(=O)N2CCCC2C(=O)NC1C (centres unmarked) [Example 7] | 25.7 | – |
| CCCCCCCCCCCCCC(=O)NC(CC(=O)O)C(=O)NC1C(=O)N2CCCCC2C(=O)NC(C(C)C(=O)O)C(=O)NC(CC(=O)O)C(=O)NCC(=O)NC(CC(=O)O)C(=O)NCC(=O)NC(C(C)N)C(=O)NC(C(C)C)C(=O)N2CCCC2C(=O)NC1C (centres unmarked) [Example 8] | 19.3 | – |
| CCCCCCCCCCCCCCC(=O)NC(CC(=O)O)C(=O)NC1C(=O)N2CCCCC2C(=O)NC(C(C)C(=O)O)C(=O)NC(CC(=O)O)C(=O)NCC(=O)NC(CC(=O)O)C(=O)NCC(=O)NC(C(C)N)C(=O)NC(C(C)C)C(=O)N2CCCC2C(=O)NC1C (centres unmarked) [Example 9] | 22.8 | – |
| CC(C)CCCCCCCCCCC(=O)NC(CC(=O)O)C(=O)NC1C(=O)N2CCCCC2C(=O)NC(C(C)C(=O)O)C(=O)NC(CC(=O)O)C(=O)NCC(=O)NC(CC(=O)O)C(=O)NCC(=O)NC(C(C)N)C(=O)NC(C(C)C)C(=O)N2CCCC2C(=O)NC1C (centres unmarked) [Example 14] | 22.9 | – |
| CCCCCCCc1ccc(C(=O)NC(CC(=O)O)C(=O)NC2C(=O)N3CCCCC3C(=O)NC(C(C)C(=O)O)C(=O)NC(CC(=O)O)C(=O)NCC(=O)NC(CC(=O)O)C(=O)NCC(=O)NC(C(C)N)C(=O)NC(C(C)C)C(=O)N3CCCC3C(=O)NC2C)cc1 (centres unmarked) [Example 49] | 0.0 | – |
| CC(C)C1NC(=O)C(C(C)N)NC(=O)CNC(=O)C(CC(=O)O)NC(=O)CNC(=O)C(CC(=O)O)NC(=O)C(C(C)C(=O)O)NC(=O)C2CCCCN2C(=O)C(NC(=O)C(CC(=O)O)NC(=O)c2ccc(CCc3ccc(-c4ccccc4)cc3)cc2)C(C)NC(=O)C2CCCN2C1=O (centres unmarked) [Example 55] | 0.5 | virtually no evidence of hemolysis |
| CC(C)C1NC(=O)C(C(C)N)NC(=O)CNC(=O)C(CC(=O)O)NC(=O)CNC(=O)C(CC(=O)O)NC(=O)C(C(C)C(=O)O)NC(=O)C2CCCCN2C(=O)C(NC(=O)C(CC(=O)O)NC(=O)c2ccc(CCc3ccc(CCc4ccccc4)cc3)cc2)C(C)NC(=O)C2CCCN2C1=O (centres unmarked) [Example 56] | 0.4 | virtually no evidence of hemolysis |
